Experimental data taken from ChEMBL document CHEMBL3991601, “The target landscape of clinical kinase drugs” (Science, 2017).
Activity calls are given as the source filed them.

Legend:
[1] = biological target: Serine/threonine-protein kinase/endoribonuclease IRE2 (Homo sapiens, UniProt Q76MJ5)
[2] = biological target: T1, Serine/threonine-protein kinase LATS1 (Homo sapiens, UniProt O95835)
T1 sequence (O95835 whole entry): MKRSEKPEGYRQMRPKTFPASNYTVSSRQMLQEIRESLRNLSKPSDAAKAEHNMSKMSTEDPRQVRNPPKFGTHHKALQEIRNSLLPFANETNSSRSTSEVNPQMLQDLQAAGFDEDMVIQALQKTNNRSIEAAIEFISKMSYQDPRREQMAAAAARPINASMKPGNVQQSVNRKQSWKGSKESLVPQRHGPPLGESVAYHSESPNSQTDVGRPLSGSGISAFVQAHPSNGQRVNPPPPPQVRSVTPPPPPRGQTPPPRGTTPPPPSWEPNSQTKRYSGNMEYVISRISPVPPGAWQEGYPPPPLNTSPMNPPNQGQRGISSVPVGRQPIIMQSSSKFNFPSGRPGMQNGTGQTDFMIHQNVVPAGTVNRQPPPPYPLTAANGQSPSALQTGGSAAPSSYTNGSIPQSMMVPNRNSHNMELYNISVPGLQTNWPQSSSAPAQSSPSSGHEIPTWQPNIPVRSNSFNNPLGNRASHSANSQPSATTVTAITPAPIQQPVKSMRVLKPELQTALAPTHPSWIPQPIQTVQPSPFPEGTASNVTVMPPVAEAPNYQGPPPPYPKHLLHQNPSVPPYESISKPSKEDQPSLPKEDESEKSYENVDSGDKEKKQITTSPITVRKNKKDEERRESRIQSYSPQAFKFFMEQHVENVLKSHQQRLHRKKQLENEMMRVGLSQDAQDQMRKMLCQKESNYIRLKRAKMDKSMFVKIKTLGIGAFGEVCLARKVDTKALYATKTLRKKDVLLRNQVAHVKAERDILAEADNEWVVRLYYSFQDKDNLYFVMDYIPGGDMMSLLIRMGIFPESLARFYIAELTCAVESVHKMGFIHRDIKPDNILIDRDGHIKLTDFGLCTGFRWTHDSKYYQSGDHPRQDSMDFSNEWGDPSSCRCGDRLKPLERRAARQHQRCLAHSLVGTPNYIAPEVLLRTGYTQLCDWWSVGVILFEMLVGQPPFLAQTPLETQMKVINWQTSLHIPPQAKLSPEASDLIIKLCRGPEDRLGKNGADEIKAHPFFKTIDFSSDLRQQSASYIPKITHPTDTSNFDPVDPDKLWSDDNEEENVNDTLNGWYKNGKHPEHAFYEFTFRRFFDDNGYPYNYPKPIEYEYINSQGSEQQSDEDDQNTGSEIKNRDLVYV

[3] = biological target: T2, Exosome RNA helicase MTR4 (Homo sapiens, UniProt P42285)
T2 sequence (P42285 whole entry): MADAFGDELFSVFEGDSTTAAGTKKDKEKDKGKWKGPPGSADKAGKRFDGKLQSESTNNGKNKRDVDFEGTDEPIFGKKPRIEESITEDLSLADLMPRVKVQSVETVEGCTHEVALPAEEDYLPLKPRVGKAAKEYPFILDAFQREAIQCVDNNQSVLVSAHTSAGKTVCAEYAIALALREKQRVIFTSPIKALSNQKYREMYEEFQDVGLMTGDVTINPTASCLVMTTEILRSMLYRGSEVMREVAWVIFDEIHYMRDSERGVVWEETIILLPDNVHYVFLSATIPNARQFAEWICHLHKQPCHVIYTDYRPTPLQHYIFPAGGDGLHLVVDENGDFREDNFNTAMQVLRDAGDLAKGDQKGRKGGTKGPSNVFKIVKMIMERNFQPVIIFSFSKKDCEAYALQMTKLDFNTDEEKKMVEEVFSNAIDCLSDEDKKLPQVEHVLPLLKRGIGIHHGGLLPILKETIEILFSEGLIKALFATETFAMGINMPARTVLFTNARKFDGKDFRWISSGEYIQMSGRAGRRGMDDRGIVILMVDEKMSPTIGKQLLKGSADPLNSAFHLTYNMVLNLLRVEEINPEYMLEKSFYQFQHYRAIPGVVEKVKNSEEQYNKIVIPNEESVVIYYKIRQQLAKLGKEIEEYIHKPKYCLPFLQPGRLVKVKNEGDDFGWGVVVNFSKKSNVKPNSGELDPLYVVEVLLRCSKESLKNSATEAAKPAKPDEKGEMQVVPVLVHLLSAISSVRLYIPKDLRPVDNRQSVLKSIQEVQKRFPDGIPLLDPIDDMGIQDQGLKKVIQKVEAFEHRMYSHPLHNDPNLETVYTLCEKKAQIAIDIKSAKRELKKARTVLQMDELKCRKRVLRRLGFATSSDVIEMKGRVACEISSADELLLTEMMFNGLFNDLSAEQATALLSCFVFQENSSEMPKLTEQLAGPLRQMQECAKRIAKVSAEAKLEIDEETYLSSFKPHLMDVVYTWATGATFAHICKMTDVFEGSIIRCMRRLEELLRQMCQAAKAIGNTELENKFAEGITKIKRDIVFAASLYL

Actin-related protein 2 = Actin-related protein 2 (Homo sapiens, UniProt P61160)
[4] = biological target: T3, Beta-adrenergic receptor kinase 1 (Homo sapiens, UniProt P25098)
T3 sequence (P25098 whole entry): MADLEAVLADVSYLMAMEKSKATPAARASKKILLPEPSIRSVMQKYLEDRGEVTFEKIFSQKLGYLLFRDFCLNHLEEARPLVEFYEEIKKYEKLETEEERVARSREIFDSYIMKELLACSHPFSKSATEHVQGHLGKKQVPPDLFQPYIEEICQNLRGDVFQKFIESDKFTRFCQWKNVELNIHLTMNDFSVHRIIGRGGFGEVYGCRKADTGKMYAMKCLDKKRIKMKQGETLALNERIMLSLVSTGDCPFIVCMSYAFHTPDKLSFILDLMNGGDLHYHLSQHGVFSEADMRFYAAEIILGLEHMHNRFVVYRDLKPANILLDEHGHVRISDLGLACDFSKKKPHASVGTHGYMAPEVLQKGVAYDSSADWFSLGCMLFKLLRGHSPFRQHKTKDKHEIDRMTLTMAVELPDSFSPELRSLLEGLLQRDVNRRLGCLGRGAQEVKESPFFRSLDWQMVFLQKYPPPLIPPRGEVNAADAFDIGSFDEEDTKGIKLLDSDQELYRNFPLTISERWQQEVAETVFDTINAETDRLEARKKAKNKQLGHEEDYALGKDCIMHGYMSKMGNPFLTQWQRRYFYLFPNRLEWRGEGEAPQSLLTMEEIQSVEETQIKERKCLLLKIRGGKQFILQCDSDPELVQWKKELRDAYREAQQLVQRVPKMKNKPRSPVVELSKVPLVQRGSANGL
Also: in the data inactive means no Kd found up to 30 µM.

Sequence of Serine/threonine-protein kinase/endoribonuclease IRE2 (Q76MJ5 whole entry): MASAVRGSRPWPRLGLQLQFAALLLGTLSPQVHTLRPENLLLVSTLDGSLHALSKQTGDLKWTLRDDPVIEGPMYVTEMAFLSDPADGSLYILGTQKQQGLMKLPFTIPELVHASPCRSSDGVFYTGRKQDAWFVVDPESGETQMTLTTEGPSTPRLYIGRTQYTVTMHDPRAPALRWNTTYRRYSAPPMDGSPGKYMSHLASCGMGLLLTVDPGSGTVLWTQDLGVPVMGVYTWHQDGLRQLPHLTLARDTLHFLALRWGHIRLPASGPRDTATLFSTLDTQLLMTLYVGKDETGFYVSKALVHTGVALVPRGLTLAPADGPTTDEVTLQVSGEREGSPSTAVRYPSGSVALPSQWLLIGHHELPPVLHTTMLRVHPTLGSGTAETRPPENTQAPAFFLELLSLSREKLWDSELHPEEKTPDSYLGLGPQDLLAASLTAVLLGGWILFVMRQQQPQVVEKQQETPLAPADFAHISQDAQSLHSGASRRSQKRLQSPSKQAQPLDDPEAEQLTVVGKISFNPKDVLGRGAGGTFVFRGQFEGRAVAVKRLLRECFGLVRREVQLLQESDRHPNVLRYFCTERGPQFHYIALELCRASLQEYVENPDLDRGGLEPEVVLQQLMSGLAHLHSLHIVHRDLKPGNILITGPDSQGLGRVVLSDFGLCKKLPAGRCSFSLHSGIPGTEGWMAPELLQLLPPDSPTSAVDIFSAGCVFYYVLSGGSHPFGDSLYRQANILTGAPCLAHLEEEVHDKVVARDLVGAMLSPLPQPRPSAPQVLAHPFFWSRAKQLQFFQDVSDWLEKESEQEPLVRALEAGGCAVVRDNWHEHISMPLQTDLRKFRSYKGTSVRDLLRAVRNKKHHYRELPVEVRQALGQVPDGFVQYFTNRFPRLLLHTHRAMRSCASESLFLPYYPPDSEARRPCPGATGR

Compound | Kd [1] | Kd [2] | Kd [3] | Kd (Actin-related protein 2) | Kd [4]
C#Cc1cccc(Nc2ncnc3cc4c(cc23)OCCOCCOCCO4)c1 [ICOTINIB] | > 30 µM (inactive) | > 30 µM (inactive) | > 30 µM (inactive) | > 30 µM (inactive) | > 30 µM (inactive)
COc1cc2ncnc(Nc3ccc(O)cc3)c2cc1OC [WHI-P131] | > 30 µM (inactive) | > 30 µM (inactive) | > 30 µM (inactive) | > 30 µM (inactive) | > 30 µM (inactive)
C=CC(=O)Nc1cc(Nc2nccc(-c3cn(C)c4ccccc34)n2)c(OC)cc1N(C)CCN(C)C [OSIMERTINIB] | > 30 µM (inactive) | > 30 µM (inactive) | > 30 µM (inactive) | > 30 µM (inactive) | > 30 µM (inactive)
FC(F)(F)c1ccc(CNc2ccc(Cc3c[nH]c4ncc(Cl)cc34)cn2)cn1 [PEXIDARTINIB] | > 30 µM (inactive) | > 30 µM (inactive) | > 30 µM (inactive) | > 30 µM (inactive) | > 30 µM (inactive)
COc1ccc2c(OCc3nnc4ccc(-c5ccccc5)nn34)ccnc2c1 [AMG-208] | > 30 µM (inactive) | > 30 µM (inactive) | > 30 µM (inactive) | > 30 µM (inactive) | > 30 µM (inactive)
CCN(CCCOc1ccc2c(Nc3cc(CC(=O)Nc4cccc(F)c4)n[nH]3)ncnc2c1)CCOP(=O)(O)O [BARASERTIB] | > 30 µM (inactive) | > 30 µM (inactive) | > 30 µM (inactive) | > 30 µM (inactive) | > 30 µM (inactive)
CCN1CCN(Cc2ccc(Nc3ncc(F)c(-c4cc(F)c5nc(C)n(C(C)C)c5c4)n3)nc2)CC1 [ABEMACICLIB] | > 30 µM (inactive) | > 30 µM (inactive) | > 30 µM (inactive) | > 30 µM (inactive) | > 30 µM (inactive)
CC1(COc2ccc3c(c2)ncn3-c2ccc3cccc(N4CCC(N)CC4)c3n2)COC1 [CRENOLANIB] | > 30 µM (inactive) | 2.77 µM (active) | > 30 µM (inactive) | > 30 µM (inactive) | > 30 µM (inactive)
COc1cccc2cc(-c3nc([C@H]4CC[C@H](C(=O)O)CC4)n4ncnc(N)c34)[nH]c12 [OSI-027] | > 30 µM (inactive) | > 30 µM (inactive) | > 30 µM (inactive) | > 30 µM (inactive) | > 30 µM (inactive)
O=C(NC[C@H](O)CO)c1ccncc1Nc1ccc(I)cc1F [PIMASERTIB] | > 30 µM (inactive) | > 30 µM (inactive) | > 30 µM (inactive) | > 30 µM (inactive) | > 30 µM (inactive)
CN1CCN(c2nc(C3=C(c4c[nH]c5ccccc45)C(=O)NC3=O)c3ccccc3n2)CC1 [SOTRASTAURIN] | > 30 µM (inactive) | > 30 µM (inactive) | > 30 µM (inactive) | > 30 µM (inactive) | > 30 µM (inactive)
c1cc(OCCN2CCCCC2)cc(-c2n[nH]c3ccc(-c4nc[nH]n4)cc23)c1 [CC-401] | > 30 µM (inactive) | > 30 µM (inactive) | > 30 µM (inactive) | > 30 µM (inactive) | > 30 µM (inactive)
O=c1[nH]c([C@@H]2CCCN2)nc2c1oc1ccc(Cl)cc12 | > 30 µM (inactive) | > 30 µM (inactive) | > 30 µM (inactive) | > 30 µM (inactive) | > 30 µM (inactive)
COc1ccc(-c2ccc3ncc4c(c3c2)n(-c2ccc(N3CCNCC3)c(C(F)(F)F)c2)c(=O)n4C)cn1 [BGT-226 FREE BASE] | > 30 µM (inactive) | > 30 µM (inactive) | > 30 µM (inactive) | > 30 µM (inactive) | > 30 µM (inactive)
O=S(=O)(c1cccc2c(O)nccc12)N1CCCNCC1 [HYDROXYFASUDIL] | > 30 µM (inactive) | > 30 µM (inactive) | > 30 µM (inactive) | > 30 µM (inactive) | > 30 µM (inactive)
CC(C)CC(=O)Nc1[nH]nc2c1CN(C(=O)C1CCN(C)CC1)C2(C)C [PHA-793887] | > 30 µM (inactive) | > 30 µM (inactive) | > 30 µM (inactive) | > 30 µM (inactive) | > 30 µM (inactive)
